Results published in patent publication US20230406831A1, “COMPOUNDS AND METHODS OF INHIBITING BACTERIAL CHAPERONIN SYSTEMS” (THE TRUSTEES OF INDIANA UNIVERSITY, priority 2020, published 2023).
pIC50: −log10 of the molar value. Read-outs that look alike come from different tables or passages of the source.

Legend:
[1] = HEK 293 kidney cell viability / cytotoxicity assay (Alamar Blue); format: cell-based; conditions: human, 48 h incubation, Alamar Blue, read-out: HEK 293 Kidney Cell Viability CC50
native MDH = target: T1, native MDH (Sus scrofa, UniProt P00346); experiment: Native MDH enzymatic activity counter-screen; format: biochemical, pig; conditions: compounds added after refolding and EDTA quench, read-out: Biochemical Assay IC50 Native MDH Activity
T1 construct: soluble pig heart MDH from Roche, product #10127248001; purchased Roche 10127248001; host or cells: pig heart
T1 sequence (P00346 25-338): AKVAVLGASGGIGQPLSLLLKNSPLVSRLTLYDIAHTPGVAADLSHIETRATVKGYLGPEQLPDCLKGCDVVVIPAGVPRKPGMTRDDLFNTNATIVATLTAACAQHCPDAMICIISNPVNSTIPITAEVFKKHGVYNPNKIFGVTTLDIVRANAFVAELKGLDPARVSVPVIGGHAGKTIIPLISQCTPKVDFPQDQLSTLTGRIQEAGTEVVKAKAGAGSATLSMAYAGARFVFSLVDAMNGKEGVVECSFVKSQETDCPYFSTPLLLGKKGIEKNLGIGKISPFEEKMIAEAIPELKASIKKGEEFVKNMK
Method: Counter-screening compounds for inhibition of native MDH enzymatic activity.
Reagent Preparations & Assay Protocol: This assay was performed as described above for the GroEL/ES-dMDH refolding assay; however, the assay protocol differed in the sequence of compound addition to the assay plates. The refolding reactions were allowed to proceed for 45 min at 37° C. in the absence of test compounds (complete refolding of MDH occurs), then quenched with the EDTA stock. Compounds were then pin-transferred into the plates after the EDTA quenching step; thus, compounds effects are only possible by inhibiting the fully-refolded MDH reporter substrate. Next enzymatic activity of the refolded MDH was initiated by addition of 20 μL MDH enzymatic assay stock (20 mM sodium mesoxalate and 2.4 mM NADH in reaction buffer, 50 mM Tris pH 7.4, 50 mM KCl, 1 mM DTT), and followed by measuring the NADH absorbance in each well at 340 nm using a Molecular Devices SpectraMax Plus384 microplate reader
A340 nm measurements were recorded at 0.5 minutes (start point) and at successive time points until the amount of NADH consumed reached ˜90% (end point, generally between 20-35 minutes). Compounds were tested in 8-point, 3-fold dilution series (62.5 μM to 29 nM during the reporter reaction) in clear, flat-bottom 384-well microtiter plates.
DMSO was used as a negative control, and previously discovered native MDH inhibitors were used as positive controls. IC50 values for the test compounds were obtained by plotting the % inhibition results in GraphPad Prism 6 and analyzing by non-linear regression using the log (inhibitor) vs. response (variable slope) equation. Results presented represent the averages of IC50 values obtained from at least quadriplicate (duplicate of duplicate) replicates.

Compound: O=C(Nc1ccc(Sc2nc3ccccc3s2)c(Cl)c1)c1cc(Br)cc(Br)c1O [Compound 1, reference compound]
- CC50 at 48 h ([1]; HEK 293 kidney cells, Table 1): 73 µM
- pIC50 (native MDH; Table 1): 5.20

Compound: O=C(Nc1ccc(Sc2nc3ccccc3s2)c(Cl)c1)c1cc(Cl)ccc1O [Compound 95, N-(4-(benzo[d]thiazol-2-ylthio)-3-chlorophenyl)-5-chloro-2-hydroxybenzamide]
- CC50 at 48 h ([1]; HEK 293 kidney cells, Table 3): 83 µM
- pIC50 (native MDH; Table 3): < 4.20

Compound: Cc1cc(C(C#N)c2ccc(Cl)cc2)c(Cl)cc1NC(=O)c1ccc([N+](=O)[O-])cc1 (stereo not drawn) [Compound 69, N-(5-chloro-4-((4-chlorophenyl)(cyano)methyl)-2-methylphenyl)-4-nitrobenzamide]
- CC50 at 48 h ([1]; HEK 293 kidney cells, Table 2): > 100 µM
- pIC50 (native MDH; Table 2): < 4.20

Compound: O=C(Nc1ccc(OCc2ccccc2)cc1)c1cc(Cl)ccc1O [Compound 103, N-(4-(benzyloxy)phenyl)-5-chloro-2-hydroxybenzamide]
- CC50 at 48 h ([1]; HEK 293 kidney cells, Table 3): > 100 µM
- pIC50 (native MDH; Table 3): < 4.20

Compound: COc1ccc(Cl)cc1C(=O)Nc1ccc(Oc2ccccc2)c(Cl)c1 [Compound 90, 5-chloro-N-(3-chloro-4-phenoxyphenyl)-2-methoxybenzamide]
- CC50 at 48 h ([1]; HEK 293 kidney cells, Table 3): > 100 µM
- pIC50 (native MDH; Table 3): < 4.20

Compound: O=C(Nc1ccc(Oc2ccccc2)cc1)c1cc(Cl)ccc1O [Compound 93, 5-chloro-2-hydroxy-N-(4-phenoxyphenyl)benzamide]
- CC50 at 48 h ([1]; HEK 293 kidney cells, Table 3): 20 µM
- pIC50 (native MDH; Table 3): < 4.20

Compound: Cc1cc(C(C#N)c2ccc(Cl)cc2)c(Cl)cc1NC(=O)c1cccc(N)c1 (stereo not drawn) [Compound 71, 3-amino-N-(5-chloro-4-((4-chlorophenyl)(cyano)methyl)-2-methylphenyl)benzamide]
- CC50 at 48 h ([1]; HEK 293 kidney cells, Table 2): 35 µM
- pIC50 (native MDH; Table 2): < 4.20

Compound: O=C(Nc1ccc(Oc2ccccc2)c(Cl)c1)c1cc(Cl)ccc1O [Compound 91, 5-chloro-N-(3-chloro-4-phenoxyphenyl)-2-hydroxybenzamide]
- CC50 at 48 h ([1]; Table 3): 4.7 µM
- pIC50 (native MDH; Table 3): < 4.20

Compound: Cc1cc(C(C#N)c2ccc(Cl)cc2)c(Cl)cc1NC(=O)c1ccc(Br)cc1 (stereo not drawn) [Compound 75, 4-bromo-N-(5-chloro-4-((4-chlorophenyl)(cyano)methyl)-2-methylphenyl)benzamide]
- CC50 at 48 h ([1]; HEK 293 kidney cells, Table 2): 33 µM
- pIC50 (native MDH; Table 2): < 4.20

Compound: COc1c(Cl)cc(Cl)cc1C(=O)Nc1cc(Cl)c(C(C#N)c2ccc(Cl)cc2)cc1C (stereo not drawn) [Compound 51, 3,5-dichloro-N-(5-chloro-4-((4-chlorophenyl)(cyano)methyl)-2-methylphenyl)-2-methoxybenzamide]
- CC50 at 48 h ([1]; Table 2): 83 µM
- pIC50 (native MDH; Table 2): < 4.20

Compound: Cc1cc(C(C#N)c2ccc(Cl)cc2)c(Cl)cc1NC(=O)c1cccc([N+](=O)[O-])c1 (stereo not drawn) [Compound 68, N-(5-chloro-4-((4-chlorophenyl)(cyano)methyl)-2-methylphenyl)-3-nitrobenzamide]
- CC50 at 48 h ([1]; HEK 293 kidney cells, Table 2): > 100 µM
- pIC50 (native MDH; Table 2): < 4.20

Compound: COc1ccc(Br)cc1C(=O)Nc1cc(Cl)c(C(C#N)c2ccc(Cl)cc2)cc1C (stereo not drawn) [Compound 49, 5-bromo-N-(5-chloro-4-((4-chlorophenyl)(cyano)methyl)-2-methylphenyl)-2-methoxybenzamide]
- CC50 at 48 h ([1]; Table 2): > 100 µM
- pIC50 (native MDH; Table 2): < 4.20

Compound: O=C(Nc1ccc(O)cc1)c1cc(Cl)ccc1O [Compound 115, 5-chloro-2-hydroxy-N-(4-hydroxyphenyl)benzamide]
- CC50 at 48 h ([1]; HEK 293 kidney cells, Table 3): > 100 µM
- pIC50 (native MDH; Table 3): < 4.20

Compound: Cc1cc(C(C#N)c2ccc(Cl)cc2)c(Cl)cc1NC(=O)c1cccc(Cl)c1O (stereo not drawn) [Compound 54, 3-chloro-N-(5-chloro-4-((4-chlorophenyl)(cyano)methyl)-2-methylphenyl)-2-hydroxybenzamide]
- CC50 at 48 h ([1]; Table 2): 88 µM
- pIC50 (native MDH; Table 2): 4.24

Compound: Cc1cc(C(C#N)c2ccc(Cl)cc2)c(Cl)cc1NC(=O)c1ccccc1Cl (stereo not drawn) [Compound 76, 2-chloro-N-(5-chloro-4-((4-chlorophenyl)(cyano)methyl)-2-methylphenyl)benzamide]
- CC50 at 48 h ([1]; Table 2): > 100 µM
- pIC50 (native MDH; Table 2): < 4.20

Compound: COc1c(Cl)cccc1C(=O)Nc1cc(Cl)c(C(C#N)c2ccc(Cl)cc2)cc1C (stereo not drawn) [Compound 53, 3-chloro-N-(5-chloro-4-((4-chlorophenyl)(cyano)methyl)-2-methylphenyl)-2-methoxybenzamide]
- CC50 at 48 h ([1]; HEK 293 kidney cells, Table 2): > 100 µM
- pIC50 (native MDH; Table 2): < 4.20

Compound: Cc1cc(C(C#N)c2ccc(Cl)cc2)c(Cl)cc1NC(=O)c1cc(Cl)ccc1O (stereo not drawn) [Compound 58, 5-chloro-N-(5-chloro-4-((4-chlorophenyl)(cyano)methyl)-2-methylphenyl)-2-hydroxybenzamide]
- CC50 at 48 h ([1]; Table 2): 11 µM
- pIC50 (native MDH; Table 2): < 4.20
- pIC50 (native MDH; Table 3): < 4.20

Compound: Cc1cc(C(C#N)c2ccc(Cl)cc2)c(Cl)cc1NC(=O)c1ccccc1[N+](=O)[O-] (stereo not drawn) [Compound 67, N-(5-chloro-4-((4-chlorophenyl)(cyano)methyl)-2-methylphenyl)-2-nitrobenzamide]
- CC50 at 48 h ([1]; HEK 293 kidney cells, Table 2): > 100 µM
- pIC50 (native MDH; Table 2): < 4.20

Compound: Cc1ccc(O)c(C(=O)Nc2cc(Cl)c(C(C#N)c3ccc(Cl)cc3)cc2C)c1 (stereo not drawn) [Compound 60, N-(5-chloro-4-((4-chlorophenyl)(cyano)methyl)-2-methylphenyl)-2-hydroxy-5-methylbenzamide]
- CC50 at 48 h ([1]; Table 2): 40 µM
- pIC50 (native MDH; Table 2): < 4.20
